Measured values: paper PMC7960626, “Phase I study assessing the mass balance, pharmacokinetics, and excretion of [^14C]-pevonedistat, a NEDD8-activating enzyme inhibitor in patients with advanced solid tumors” (Investigational New Drugs, 2020)
Entries after “also recorded” stand apart in the source; their conditions may differ.

How the values were obtained:
[1] = Mass balance: recovery of total radioactivity in urine and feces (part A); type: in vivo, human; conditions: post dose; single IV dose 25 mg/m^2
Experimental: This was a two-part (A and B), open-label, multicenter, mass balance, distribution, metabolism, excretion (DME) study in adult patients with advanced solid tumors. In part A, patients received a single IV infusion of [^14C]-pevonedistat 25 mg/m^2 (containing approximately 60–85 µCi, or 2.22–3.145 MBq, of total radioactivity) at a single center (Duna Medical Center, Budapest, Hungary). Patients were required to stay at the part A study site for approximately 8 days or until the discharge criteria were met, with a maximum estimated confinement period of 9–14 days. […]
The primary objectives of the study were to assess the mass balance (cumulative recovery of total radioactivity in urine and feces) and to characterize the PK of pevonedistat (whole blood, plasma, and urine) and total radioactivity (drug-related material; plasma and whole blood) following a single infusion of [^14C]-pevonedistat 25 mg/m^2 (part A).
Blood samples were collected for total radioactivity and PK assessments in whole blood and plasma at prespecified time points (pre dose [within 1 h before the start of the pevonedistat infusion], end of infusion, then 0.5, 1, 2, 3, 4, 8, 12, 24, 48, 72, 96, 120, 144 and 168 hours post dose). Complete urinary and fecal output were collected for analysis of PK (urine) and total radioactivity (urine and feces) throughout the confinement period until discharge criteria were met. […]

[2] = design: method as in PMID 30845347; conditions: strong and moderate CYP3A inhibitors (itraconazole); cited from earlier work
[3] = tested on: human colon and lung tumor xenograft models; design: method as in PMID 19509147; conditions: repeated dosing, immunocompromised mice; cited from earlier work
CYP3A = tested on: CYP3A; design: method as in PMID 30845347; conditions: in vitro; cited from earlier work
[4] = tested on: acute myeloid leukemia (AML) xenograft models; design: method as in PMID 20203261; conditions: mice; cited from earlier work

Question: What does the source list for `NS(=O)(=O)OC[C@@H]1C[C@@H](n2ccc3c(N[C@H]4CCc5ccccc54)ncnc32)C[C@@H]1O` [Pevonedistat]?
Answer: time by which the majority of the radioactivity was recovered [1]: ≤ 96 h; effect of CYP3A inhibitors on pevonedistat exposure [2]: did not indicate clinically meaningful alterations in its PK; also recorded: did not result in clinically meaningful increases in pevonedistat exposure; tumor growth [3]: tumor growth inhibition; role of CYP3A in metabolism (CYP3A): substrate of CYP3A; also recorded: major role for CYP3A; disease course [4]: durable disease regression
